# Source: US20210008018A1, “DEUTERATED ANALOGS OF D-BETA-HYDROXYBUTYRIC ACID AND USES THEREOF” (Concert Pharmaceuticals, Inc., priority 2018, published 2021)
# Assays:
# [1] = target: β-hydroxybutyrate dehydrogenase from Pseudomonas lemoignei (Paucimonas lemoignei, UniProt A0A4R3I0R9); assay: Metabolic stability using D-β-hydroxybutyrate dehydrogenase (NADH formation, Km/Vmax); conditions: for CLint Ratio (NCE/PCE): NCE = Compound 100, 102 or 202, PCE = protio DBHB; for T1/2 Δ (%): [(deuterated species)-(nondeuterated species)](100)/(nondeuterated species); for ^DV: deuterium isotope effect on Vmax versus D-β-hydroxybutyric acid; for ^D(V/K): deuterium isotope effect on Vmax/Km versus D-β-hydroxybutyric acid; for CLint: intrinsic clearance calculated from Vmax and Km; for half-life: b-hydroxybutyrate dehydrogenase, pH 7.8; for Vmax: compound as substrate, NADH formation, Michaelis-Menten non-linear regression, 100 mM Tris pH 7.8
# Chain of β-hydroxybutyrate dehydrogenase from Pseudomonas lemoignei (A0A4R3I0R9 entry or part of it): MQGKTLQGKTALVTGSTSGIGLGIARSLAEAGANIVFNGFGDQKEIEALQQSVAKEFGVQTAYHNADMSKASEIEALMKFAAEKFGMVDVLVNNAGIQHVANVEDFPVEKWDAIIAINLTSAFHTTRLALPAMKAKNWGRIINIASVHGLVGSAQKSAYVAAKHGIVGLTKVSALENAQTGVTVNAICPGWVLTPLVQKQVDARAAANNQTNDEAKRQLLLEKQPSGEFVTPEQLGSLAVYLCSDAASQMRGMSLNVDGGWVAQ
# Procedure: (§1) Materials: β-Hydroxybutyrate Dehydrogenase from Pseudomonas lemoignei, nicotinamide adenine dinucleotide sodium salt (NAD), β-nicotinamide adenine dinucleotide, reduced dipotassium salt (NADH) and Trizma Base were purchased from Sigma-Aldrich.
# (§2) Determination of Metabolic Stability of Compounds of the Invention Using D-β-hydroxybutyrate Dehydrogenase: 100 mM Tris pH 7.8 was prepared for assessing catalytic activity and as diluent to form corresponding solutions. Enzyme solution was prepared by dissolving lyophilized β-hydroxybutyrate dehydrogenase from Pseudomonas lemoignei in 100 mM Tris pH 7.8 to a final concentration of 200 Units/mL. The enzyme working stock solution (2 Units/mL) was prepared by dilution of stock solution (200 Units/mL) with 100 mM Tris pH 7.8 buffer. 30 mM NAD stock solution was prepared by dissolving NAD in 100 mM Tris pH 7.8 buffer. […] Working stock solutions of test compounds were prepared over the concentration range of 1 to 40 mM by appropriate dilutions in 100 mM Tris pH 7.8 buffer. 10 mM analytical standard stock solution were prepared by dissolving NADH in 100 mM Tris pH 7.8. Analytical standards were prepared over the concentration range of 0.05 to 1.5 mM by appropriate dilutions in 100 mM Tris pH 7.8. Enzymatic assays were conducted by aliquoting 40 μL of working test compound stock solution, 6 μL of enzyme working stock solution, 178 μL 100 mM Tris pH 7.8 into 96-well white clear bottom plates. The enzymatic assay was initiated by adding 16 μL of 30 mM NAD. The reaction was incubated at 37° C. The progress of each reaction was monitored over 15 minutes by measuring absorbance at […] of all wells every minute using a Perkin Elmer Enspire Multimode plate reader. Blank wells were prepared to subtract background. NADH formation was quantified using NADH analytical standard curve on same 96-well plate used to monitor enzyme activity. All reactions were conducted in triplicate.
# (§3) The activity was determined by monitoring the rate of conversion of NAD to NADH by change in absorbance at 340 nm. The appropriate background was subtracted for each concentration and compound investigated and NADH concentration formed was calculated using NADH standard curve. The initial rates (v) for NADH formation as a function of initial test compound concentration (C) to derive Km and Vmax values by non-linear regression using Michaelis-Menten equation using GraphPad Prism 7 for Windows (version 7.03).
# (§4) Difference between Vmax, Km and catalytic efficiency (Vmax/Km) for each compound was assessed using unpaired t-test with statistical significance using Holm-Sidak method with α=0.05. The unpaired t-test values were calculated using GraphPad Prism 7 for Windows (version 7.03).
# (§5) Intrinsic clearance (CLint) and half-life (t1/2) values were calculated for each test compound using the following equations.
# [2] = target: β-hydroxybutyrate dehydrogenase (Paucimonas lemoignei, UniProt A0A4R3I0R9); assay: as above; conditions: Pseudomonas lemoignei, pH 7.8
# Chain of β-hydroxybutyrate dehydrogenase (A0A4R3I0R9 entry or part of it): as above
# Procedure: as §1, §2, §3, §4, §5
# [3] = using Vmax/Km to predict clearance, vs D-β-hydroxybutyric acid, 0.167 mM to 6.7 mM
# [4] = vs D-β-hydroxybutyric acid, D-β-Hydroxybutyrate Dehydrogenase Assay
Compound,CLint Ratio (NCE/PCE) [1],T1/2 Δ (%) [1],^DV [1],^D(V/K) [1],CLint [1],"clearance predicted to be reduced by, compared to D-β-hydroxybutyric acid [1, 3]","increase in half-life (T1/2) [1, 4]",half-life [2],half-life [1],Vmax ([1]; 0.167 mM to 6.7 mM),"clearance predicted to be increased by, compared to D-β-hydroxybutyric acid [1, 3]","decrease in half-life (T1/2) [1, 4]"
"[2H][C@](C)(O)CC(=O)O [Compound 100, (R)-3-Hydroxybutanoic-3-d1 Acid]",0.7,40.2%,1.1,1.4,0.0190 mL/min,30%,40%,36.4 min,–,–,–,–
"[2H]C([2H])([2H])[C@@H](O)CC(=O)O [Compound 202, (R)-3-hydroxybutanoic-4,4,4-d3 Acid]",2.0,−48.7%,0.7,0.5,0.0520 mL/min,–,–,–,13.3 min,0.0330 µmol/mL/min,100%,~49%
"C[C@@H](O)CC(=O)O [DBHB, D-β-hydroxybutyric acid, reference compound]",–,–,–,–,0.0267 mL/min,–,–,26 min,–,–,–,–
"[2H]C([2H])([2H])[C@@]([2H])(O)CC(=O)O [Compound 102, (R)-3-hydroxybutanoic-3,4,4,4-d4 Acid]",0.5,114%,1.0,2.1,0.0125 mL/min,50%,114%,–,55.7 min,0.0213 µmol/mL/min,–,–
